Laboratory results: US9474790B2, “Stable, protracted GLP-1/glucagon receptor co-agonists for medical use” (Novo Nordisk A/S, priority 2013, dated 2016)
Numbered stars: 1 amine (or outer) side, 2 acyl side, 3 side chain; on linkers, the order of the positions; unused ones are H or OH. Square brackets hold non-standard residues; d marks the D form. Side chains are listed from the residue outwards. Peptide text beside a SMILES is read from it. * marks the point of attachment. C18 diacid = O=C(O)CCCCCCCCCCCCCCCCC(=O)*; γGlu = O=C(O)[C@H](CCC(=O)[*:2])N[*:1]; Ac4c = NC1(C(=O)O)CCC1; AEEA = NCCOCCOCC(=O)O; Aib = CC(C)(N)C(=O)O

Molecular target: T1, human GLP-1 receptor (Homo sapiens, UniProt P43220)
T1 construct: expressed in transfected cells; host or cells: BHK cells (parent BHKTS13), clone FCW467-12A/KZ10-1, with CRE luciferase
T1 sequence (P43220 24-463): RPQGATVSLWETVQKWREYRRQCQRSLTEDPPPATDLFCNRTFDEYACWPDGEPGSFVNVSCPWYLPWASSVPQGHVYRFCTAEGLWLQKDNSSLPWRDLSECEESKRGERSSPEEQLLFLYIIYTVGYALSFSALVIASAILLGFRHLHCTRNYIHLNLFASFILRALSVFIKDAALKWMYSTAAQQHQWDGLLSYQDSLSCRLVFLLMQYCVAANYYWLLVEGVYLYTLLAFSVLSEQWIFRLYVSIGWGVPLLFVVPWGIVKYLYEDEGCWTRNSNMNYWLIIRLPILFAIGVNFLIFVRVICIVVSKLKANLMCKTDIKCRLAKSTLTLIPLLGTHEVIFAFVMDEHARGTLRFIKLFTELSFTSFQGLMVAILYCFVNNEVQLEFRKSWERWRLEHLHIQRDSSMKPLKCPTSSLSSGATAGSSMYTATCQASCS
Experiment: GLP-1 receptor potency, CRE luciferase reporter gene assay in BHK cells
Format: cell-based
Conditions: BHK cells expressing human GLP-1 receptor, read-out: EC50 GLP-1R
Procedure, shortened: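 BHK cells stably expressing human GLP-1 receptor with CRE-luciferase reporter, 5×10EE3 cells/well in phenol red-free DMEM with 10 mM Hepes, 2% ovalbumin, 0.2% Pluronic F-68. Compounds at final 1×10EE-6 to 1×10EE-13 M, 3 h at 37° C; steadylite luminescence; EC50 by four-parameter fit, in pM.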

Q: With `CC(C)C[C@H](NC(=O)[C@H](Cc1ccc(O)cc1)NC(=O)[C@H](CCCCN)NC(=O)[C@H](CO)NC(=O)[C@H](CC(C)C)NC(=O)[C@H](CC(=O)O)NC(=O)[C@H](CO)NC(=O)[C@@H](NC(=O)[C@H](Cc1ccccc1)NC(=O)[C@@H](NC(=O)CNC(=O)[C@H](CCC(N)=O)NC(=O)C(C)(C)NC(=O)[C@@H](N)Cc1c[nH]cn1)[C@@H](C)O)[C@@H](C)O)C(=O)N[C@@H](CCC(=O)O)C(=O)N[C@@H](CO)C(=O)N[C@@H](CCCCN)C(=O)N[C@@H](CCCNC(=N)N)C(=O)N[C@@H](C)C(=O)N[C@@H](CCCNC(=N)N)C(=O)N[C@@H](CCC(=O)O)C(=O)N[C@@H](Cc1ccccc1)C(=O)N[C@H](C(=O)N[C@@H](CCC(N)=O)C(=O)N[C@@H](Cc1c[nH]c2ccccc12)C(=O)N[C@@H](CC(C)C)C(=O)N[C@@H](CC(C)C)C(=O)N[C@@H](CCCCNC(=O)CC[C@H](NC(=O)CC[C@H](NC(=O)[C@H](CO)NC(=O)[C@H](CCC(=O)O)NC(=O)[C@H](CO)NC(=O)CC[C@H](NC(=O)CC[C@H](NC(=O)CCCCCCCCCCCCCCCCC(=O)O)C(=O)O)C(=O)O)C(=O)O)C(=O)O)C(=O)N[C@H](C(N)=O)[C@@H](C)O)C(C)C` [Example 52] (H-H[Aib]QGTFTSDLSKYLESKRAREFVQWLLK([γGlu-γGlu-Ser-Glu-Ser-γGlu-γGlu-C18 diacid])T-NH2; N-terminus assumed) as the compound, how does the EC50 read?
A: 4 pM

Q: `CC(C)C[C@H](NC(=O)[C@H](Cc1ccc(O)cc1)NC(=O)[C@H](CCCCN)NC(=O)[C@H](CO)NC(=O)[C@H](CC(C)C)NC(=O)[C@H](CC(=O)O)NC(=O)[C@H](CO)NC(=O)[C@@H](NC(=O)[C@H](Cc1ccccc1)NC(=O)[C@@H](NC(=O)CNC(=O)[C@H](CCC(N)=O)NC(=O)C(C)(C)NC(=O)[C@@H](N)Cc1c[nH]cn1)[C@@H](C)O)[C@@H](C)O)C(=O)N[C@@H](CCC(=O)O)C(=O)N[C@@H](CO)C(=O)N[C@@H](CCCCN)C(=O)N[C@@H](CCCNC(=N)N)C(=O)N[C@@H](C)C(=O)N[C@@H](CCCNC(=N)N)C(=O)N[C@@H](CCC(=O)O)C(=O)N[C@@H](Cc1ccccc1)C(=O)N[C@H](C(=O)N[C@@H](CCC(N)=O)C(=O)N[C@@H](Cc1c[nH]c2ccccc12)C(=O)N[C@@H](CC(C)C)C(=O)N[C@@H](CC(C)C)C(=O)N[C@@H](CCCCNC(=O)CC[C@H](NC(=O)CC[C@H](NC(=O)[C@H](CO)NC(=O)[C@H](CCC(=O)O)NC(=O)[C@H](CO)NC(=O)CC[C@H](NC(=O)CC[C@H](NC(=O)CCCCCCCCCCCCCCCCC(=O)O)C(=O)O)C(=O)O)C(=O)O)C(=O)O)C(=O)N[C@H](C(N)=O)[C@@H](C)O)C(C)C` [Example 54, N^ε28-[(4S)-4-carboxy-4-[[(4S)-4-carboxy-4-[[(2S)-2-[[(2S)-4-carboxy-2-[[(2S)-2-[[(4S)-4-carboxy-4-[[(4S)-4-carboxy-4-(17-carboxyheptadecanoylamino)butanoyl]amino]butanoyl]amino]-3-hydroxypropanoyl]amino]butanoyl]amino]-3-hydroxypropanoyl]amino]butanoyl]amino]butanoyl]-[Aib2,Leu10,Glu15,Lys17,Arg20,Glu21,Leu27,Lys28]-Glucagon amide] (H-H[Aib]QGTFTSDLSKYLESKRAREFVQWLLK([γGlu-γGlu-Ser-Glu-Ser-γGlu-γGlu-C18 diacid])T-NH2; N-terminus assumed) was tested. Which EC50 did it give?
A: 2.7 pM

Q: How did the EC50 turn out when `CC(C)C[C@H](NC(=O)[C@H](Cc1ccc(O)cc1)NC(=O)[C@H](CCCNC(=N)N)NC(=O)[C@H](CO)NC(=O)[C@H](CC(C)C)NC(=O)[C@H](CC(=O)O)NC(=O)[C@H](CO)NC(=O)[C@@H](NC(=O)[C@H](Cc1ccccc1)NC(=O)[C@@H](NC(=O)CNC(=O)[C@H](CCC(N)=O)NC(=O)C1(NC(=O)[C@@H](N)Cc2c[nH]cn2)CCC1)[C@@H](C)O)[C@@H](C)O)C(=O)N[C@@H](CCC(=O)O)C(=O)N[C@@H](CO)C(=O)N[C@@H](CCCNC(=N)N)C(=O)N[C@@H](CCCNC(=N)N)C(=O)N[C@@H](C)C(=O)N[C@@H](CCCNC(=N)N)C(=O)N[C@@H](CCC(=O)O)C(=O)N[C@@H](Cc1ccccc1)C(=O)N[C@H](C(=O)N[C@@H](CCC(N)=O)C(=O)N[C@@H](Cc1c[nH]c2ccccc12)C(=O)N[C@@H](CC(C)C)C(=O)N[C@@H](CC(C)C)C(=O)N[C@@H](CCCCNC(=O)CC[C@H](NC(=O)CC[C@H](NC(=O)COCCOCCNC(=O)COCCOCCNC(=O)CC[C@H](NC(=O)CC[C@H](NC(=O)CCCCCCCCCCCCCCCCC(=O)O)C(=O)O)C(=O)O)C(=O)O)C(=O)O)C(=O)N[C@H](C(N)=O)[C@@H](C)O)C(C)C` [Example 59, N^ε28-[(4S)-4-carboxy-4-[[(4S)-4-carboxy-4-[[2-[2-[2-[[2-[2-[2-[[(4S)-4-carboxy-4-[[(4S)-4-carboxy-4-(17-carboxyheptadecanoylamino)butanoyl]amino]butanoyl]amino]ethoxy]ethoxy]acetyl]amino]ethoxy]ethoxy]acetyl]amino]butanoyl]amino]butanoyl]-[Acb2,Leu10,Arg12,Glu15,Arg20,Glu21,Leu27,Lys28]-Glucagon amide] (H-H[Ac4c]QGTFTSDLSRYLESRRAREFVQWLLK([γGlu-γGlu-AEEA-AEEA-γGlu-γGlu-C18 diacid])T-NH2; N-terminus assumed) was run?
A: 4 pM

Q: For `CC(C)C[C@H](NC(=O)[C@H](Cc1ccc(O)cc1)NC(=O)[C@H](CCCCN)NC(=O)[C@H](CO)NC(=O)[C@H](CC(C)C)NC(=O)[C@H](CC(=O)O)NC(=O)[C@H](CO)NC(=O)[C@@H](NC(=O)[C@H](Cc1ccccc1)NC(=O)[C@@H](NC(=O)CNC(=O)[C@H](CCC(N)=O)NC(=O)C(C)(C)NC(=O)[C@@H](N)Cc1c[nH]cn1)[C@@H](C)O)[C@@H](C)O)C(=O)N[C@@H](CCC(=O)O)C(=O)N[C@@H](CO)C(=O)N[C@@H](CCCNC(=N)N)C(=O)N[C@@H](CCCNC(=N)N)C(=O)N[C@@H](C)C(=O)N[C@@H](CCCNC(=N)N)C(=O)N[C@@H](CCC(=O)O)C(=O)N[C@@H](Cc1ccccc1)C(=O)N[C@H](C(=O)N[C@@H](CCC(N)=O)C(=O)N[C@@H](Cc1c[nH]c2ccccc12)C(=O)N[C@@H](CC(C)C)C(=O)N[C@@H](CC(C)C)C(=O)N[C@@H](CCCCNC(=O)CC[C@H](NC(=O)CC[C@H](NC(=O)COCCOCCNC(=O)COCCOCCNC(=O)CC[C@H](NC(=O)CC[C@H](NC(=O)CCCCCCCCCCCCCCCCC(=O)O)C(=O)O)C(=O)O)C(=O)O)C(=O)O)C(=O)N[C@H](C(N)=O)[C@@H](C)O)C(C)C` [Example 60, N^ε28-[(4S)-4-carboxy-4-[[(4S)-4-carboxy-4-[[2-[2-[2-[[2-[2-[2-[[(4S)-4-carboxy-4-[[(4S)-4-carboxy-4-(17-carboxyheptadecanoylamino)butanoyl]amino]butanoyl]amino]ethoxy]ethoxy]acetyl]amino]ethoxy]ethoxy]acetyl]amino]butanoyl]amino]butanoyl]-[Aib2,Leu10,Glu15,Arg20,Glu21,Leu27,Lys28]-Glucagon amide] (H-H[Aib]QGTFTSDLSKYLESRRAREFVQWLLK([γGlu-γGlu-AEEA-AEEA-γGlu-γGlu-C18 diacid])T-NH2; N-terminus assumed), which EC50 is on record?
A: 6 pM

Q: How did the EC50 turn out when `CC(C)C[C@H](NC(=O)[C@H](Cc1ccc(O)cc1)NC(=O)[C@H](CCCCN)NC(=O)[C@H](CO)NC(=O)[C@H](CC(C)C)NC(=O)[C@H](CC(=O)O)NC(=O)[C@H](CO)NC(=O)[C@@H](NC(=O)[C@H](Cc1ccccc1)NC(=O)[C@@H](NC(=O)CNC(=O)[C@H](CCC(N)=O)NC(=O)C1(NC(=O)[C@@H](N)Cc2c[nH]cn2)CCC1)[C@@H](C)O)[C@@H](C)O)C(=O)N[C@@H](CCC(=O)O)C(=O)N[C@@H](CO)C(=O)N[C@@H](CCCNC(=N)N)C(=O)N[C@@H](CCCNC(=N)N)C(=O)N[C@@H](C)C(=O)N[C@@H](CCCNC(=N)N)C(=O)N[C@@H](CCC(=O)O)C(=O)N[C@@H](Cc1ccccc1)C(=O)N[C@H](C(=O)N[C@@H](CCC(N)=O)C(=O)N[C@@H](Cc1c[nH]c2ccccc12)C(=O)N[C@@H](CC(C)C)C(=O)N[C@@H](CC(C)C)C(=O)N[C@@H](CCCCNC(=O)CC[C@H](NC(=O)CC[C@H](NC(=O)COCCOCCNC(=O)COCCOCCNC(=O)CC[C@H](NC(=O)CC[C@H](NC(=O)CCCCCCCCCCCCCCCCC(=O)O)C(=O)O)C(=O)O)C(=O)O)C(=O)O)C(=O)N[C@H](C(N)=O)[C@@H](C)O)C(C)C` [Example 61, N^ε28-[(4S)-4-carboxy-4-[[(4S)-4-carboxy-4-[[2-[2-[2-[[2-[2-[2-[[(4S)-4-carboxy-4-[[(4S)-4-carboxy-4-(17-carboxyheptadecanoylamino)butanoyl]amino]butanoyl]amino]ethoxy]ethoxy]acetyl]amino]ethoxy]ethoxy]acetyl]amino]butanoyl]amino]butanoyl]-[Acb2,Leu10,Glu15,Arg20,Glu21,Leu27,Lys28]-Glucagon amide] (H-H[Ac4c]QGTFTSDLSKYLESRRAREFVQWLLK([γGlu-γGlu-AEEA-AEEA-γGlu-γGlu-C18 diacid])T-NH2; N-terminus assumed) was run?
A: 6 pM

Q: For `CC(C)C[C@H](NC(=O)[C@H](Cc1ccc(O)cc1)NC(=O)[C@H](CCCNC(=N)N)NC(=O)[C@H](CO)NC(=O)[C@H](CC(C)C)NC(=O)[C@H](CC(=O)O)NC(=O)[C@H](CO)NC(=O)[C@@H](NC(=O)[C@H](Cc1ccccc1)NC(=O)[C@@H](NC(=O)CNC(=O)[C@H](CCC(N)=O)NC(=O)C(C)(C)NC(=O)[C@@H](N)Cc1c[nH]cn1)[C@@H](C)O)[C@@H](C)O)C(=O)N[C@@H](CC(=O)O)C(=O)N[C@@H](C)C(=O)N[C@@H](CCCNC(=N)N)C(=O)N[C@@H](CCCNC(=N)N)C(=O)N[C@@H](C)C(=O)N[C@@H](CCCNC(=N)N)C(=O)N[C@@H](CC(=O)O)C(=O)N[C@@H](Cc1ccccc1)C(=O)N[C@H](C(=O)N[C@@H](CCC(N)=O)C(=O)N[C@@H](Cc1c[nH]c2ccccc12)C(=O)N[C@@H](CC(C)C)C(=O)N[C@@H](CC(C)C)C(=O)N[C@@H](CCCCNC(=O)CC[C@H](NC(=O)CC[C@H](NC(=O)CC[C@H](NC(=O)CCCCCCCCCCCCCCCCC(=O)O)C(=O)O)C(=O)O)C(=O)O)C(=O)N[C@H](C(N)=O)[C@@H](C)O)C(C)C` [Example 62, N^ε28-[(4S)-4-carboxy-4-[[(4S)-4-carboxy-4-[[(4S)-4-carboxy-4-(17-carboxyheptadecanoylamino)butanoyl]amino]butanoyl]amino]butanoyl]-[Aib2,Leu10,Arg12,Ala16,Arg20,Leu27,Lys28]-Glucagon amide] (H-H[Aib]QGTFTSDLSRYLDARRARDFVQWLLK([γGlu-γGlu-γGlu-C18 diacid])T-NH2; N-terminus assumed), which EC50 is on record?
A: 8 pM
